Results as given in ChEMBL document CHEMBL4627343, “High throughput in vivo phenotypic screening for drug repurposing: Discovery of MLR-1023 a novel insulin sensitizer and novel Lyn kinase activator with clinical proof of concept” (Bioorg Med Chem, 2020).

Tests used:
[1] = Cmax in ip dosed […] administered twice daily; format: ADME, organism-based; set-up: route intraperitoneal; conditions: in vivo
[2] = Tmax in ip dosed […] administered twice daily; format: ADME, organism-based; conditions: in vivo
[3] = target: Tyrosine-protein kinase Lyn (Homo sapiens, UniProt P07948); assay: […] of Lyn (unknown origin)
[4] = AUC in ip dosed […] administered twice daily; format: ADME, organism-based; conditions: in vivo
[5] = Drug uptake in human brain; format: ADME, tissue-based
[6] = Bioavailability in ip dosed […] administered twice daily; format: ADME, organism-based; conditions: in vivo
[7] = Toxicity in ip dosed […] administered twice daily; format: organism-based; conditions: in vivo

Sequence of Tyrosine-protein kinase Lyn (P07948 whole entry): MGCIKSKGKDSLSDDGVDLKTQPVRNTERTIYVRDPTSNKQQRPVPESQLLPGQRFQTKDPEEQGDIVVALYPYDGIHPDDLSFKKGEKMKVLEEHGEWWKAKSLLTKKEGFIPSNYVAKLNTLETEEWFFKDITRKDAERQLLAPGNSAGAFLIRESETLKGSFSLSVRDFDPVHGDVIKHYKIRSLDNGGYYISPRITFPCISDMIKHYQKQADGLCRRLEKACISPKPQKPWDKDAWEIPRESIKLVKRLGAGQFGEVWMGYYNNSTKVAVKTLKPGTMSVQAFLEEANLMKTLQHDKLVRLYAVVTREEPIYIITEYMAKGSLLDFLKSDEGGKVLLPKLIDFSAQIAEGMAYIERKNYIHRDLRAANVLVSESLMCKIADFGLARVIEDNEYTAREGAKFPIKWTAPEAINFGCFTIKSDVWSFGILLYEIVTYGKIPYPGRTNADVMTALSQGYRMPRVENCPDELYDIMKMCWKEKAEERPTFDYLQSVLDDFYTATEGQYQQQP

Cc1cccc(Oc2cnc(=O)[nH]c2)c1 [TOLIMIDONE]
Cmax [1]: 6540 ng/mL
Tmax [2]: 15 min
EC50 [3]: 63 nM
AUC [4]: 4780 ng·h/mL
Drug uptake [5]: 1.3%
bioavailability [6]: 53.9%
MTD [7]: 100 mg/kg
